Source: patent US20040170714A1, “Bauhinia extracts” (priority 2001, published 2004)

How the values were obtained:
N0-STZ rats [1] = experiment: Fasting plasma glucose concentration on day 5 in the N0-STZ rat model; format: in vivo; conditions: 2 × 100 mg/kg daily; day 5, after 2 hour fasting, before glucose; control −14
Method: The fasting plasma glucose concentration (table 4) is measured from blood samples obtained after a 2 hour fasting period on day 5 before the administration of glucose. In addition, preferred extracts of the invention in hand show a significant decrease of the fasting plasma glucose concentration versus initial basal glycemia. Preferred extracts show a decrease of the fasting plasma glucose concentration of at least 10%, more preferred of at least 28% versus initial basal glycemia.
The fasting plasma glucose concentration (table 4) is measured from blood samples obtained after a 2 hour fasting period on day 5 before the administration of glucose.

N0-STZ rats [2] = experiment: Oral Glucose Tolerance Test (OGTT) in the N0-STZ rat model after 5 days of gavage; format: in vivo; conditions: Example 2a, 2 × 100 mg/kg daily for 5 days
Method: The N0-STZ rat model is described in Portha B., Picon L., Rosselin G., Diabetologia, 1979, 17, 371-377. The Oral Glucose Tolerance Test (OGTT) is described in Wilkerson: Diagnosis, oral glucose tolerance test: in Diabetes mellitus, Diagnosis & Treatment, p.31-34, NY, American Diabetes Association, 1964. During 5 days an appropriate dose of the extract is gavaged into the N0-STZ rats two times a day. Three hours after the last administration the Oral Glucose Tolerance Test (OGTT) is performed in awake rats by administering 2 g glucose/kg body weight. Blood samples are collected just before glucose administration (0 min) and after 30, 60 90, 120 and 180 minutes.
(§1) The N0-STZ rat model is used to evaluate the efficacy of the extract of example 1. During 5 days an appropriate dose of the drug (table 1) is gavaged into 8 N0-STZ rats two times a day. Three hours after the last administration the Oral Glucose Tolerance Test (OGTr) is performed in awake rats by administering 2 g glucose/kg body weight. Blood samples are collected just before glucose administration (0 min) and after 30, 60 90 and 120 minutes.
as §1, with “5)” for “1)”, “rats.” for “rats two times a day.”, “(OGTT)” for “(OGTr)”

`CN(C)C(=N)N=C(N)N` [example 24, metformin] was tested, and the “Effect on fasting Plasma Glucose Concentration in % of variation versus initial basal glycemia” value (N0-STZ rats [1]) was −31%, the “OGTT area under curve: deviation from control (23)” value (N0-STZ rats [2]) was −18% and the “OGTT: Area under curve (Integration of the Plasma Glucose Level versus time, table 2)” value (N0-STZ rats [2]; 0-120 min) was 26363. The “Plasma Glucose Level” value (N0-STZ rats [2]; 30 min after 2 g glucose/kg) was 245 mg/dL, the “Plasma Glucose Level” value (N0-STZ rats [2]; 60 min after 2 g glucose/kg) was 242 mg/dL and the “Plasma Glucose Level” value (N0-STZ rats [2]; 90 min after 2 g glucose/kg) was 223 mg/dL. For the same compound, the “Plasma Glucose Level” value (N0-STZ rats [2]; 120 min after 2 g glucose/kg) was 207 mg/dL and the “Plasma Glucose Level” value (N0-STZ rats [2]; time −0 min (just before 2 g glucose/kg)) was 143 mg/dL.
